Data from article PMC7337048 (Journal of Structural Biology: X, 2019).
Where “and” joins values, the source holds several entries; their conditions need not be identical. Identical values can stand only once. Like-named read-outs stand apart in the source and are kept apart here.

Columns and labels:
[1] = molecular target: Human Arginase-2; details: cited from earlier work; for IC50: Enzyme assay at pH 7.4
[2] = molecular target: T1, human Arginase-1 (Homo sapiens, UniProt P05089); assay: Apparent Michaelis-Menten parameters, colorimetric urea assay; format: biochemical; details: substrate; for Km: read-out: Michaelis constant (KM)
T1 sequence (P05089 1-322): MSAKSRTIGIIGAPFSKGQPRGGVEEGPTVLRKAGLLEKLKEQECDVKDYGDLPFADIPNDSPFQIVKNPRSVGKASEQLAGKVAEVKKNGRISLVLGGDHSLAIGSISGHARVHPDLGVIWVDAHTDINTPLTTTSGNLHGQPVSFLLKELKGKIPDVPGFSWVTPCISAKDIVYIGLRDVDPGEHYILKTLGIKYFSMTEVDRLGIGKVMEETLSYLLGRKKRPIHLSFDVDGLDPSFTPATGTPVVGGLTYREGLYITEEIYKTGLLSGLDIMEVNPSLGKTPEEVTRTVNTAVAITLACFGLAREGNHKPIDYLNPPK
Procedure: Arginase-1 activity was monitored by measurement of the rate of urea formation in a classic colorimetric assay ([Jung et al., 1975], [Zawada et al., 2009]). All components of the assay were diluted in Arginase reaction buffer 1 (8 mM Na2HPO4, 2 mM KH2PO4, pH 7.4, 137 mM NaCl, 2.7 mM KCl, and 0.05% Tween-20) or Arginase reaction buffer 2 (10 mM glycine, pH 9.5, 137 mM NaCl, 2.7 mM KCl, and 0.05% Tween-20). Compounds were either dissolved and diluted in DMSO, followed by further dilution in reaction buffer, or dissolved in MilliQ water (MQ) and diluted in reaction buffer to the desired concentrations. In a clear 384-well plate (cat. no. 781101; Greiner), 10 µL diluted compound and 10 µL of 3 nM (pH 9.5) or 15 nM (pH 7.4) Arginase-1 were combined and incubated for 90 min at room temperature. Then, 10 µL of 15 mM (pH 9.5) or 7.5 mM (pH 7.4) L-arginine (cat. no. 105000250; Acros Organics) was added to the plate, followed by incubation for 30 min. A 1:1 mixture of reagent A (10 mM o-phthaldialdehyde, 0.4% polyoxyethylene (23) lauryl ether (w/v) and 1.8 M sulfuric acid) and reagent B (1.3 mM primaquine diphosphate, 0.4% polyoxyethylene (23) lauryl ether (w/v), 130 mM boric acid and 3.6 M sulfuric acid) was prepared. The enzymatic reaction was stopped by addition of 30 μL of the reagent A + B mixture. After incubation with the reagent mixture for 60 min (pH 9.5) or 120 min (pH 7.4), the absorbance was measured at 450 nm using the EnVision 2104 Multilabel Plate Reader (PerkinElmer, Waltham, MA) (excitation filter P450). The final concentrations of Arginase-1 and L-arginine in the assay were respectively 1 nM and 5 mM at pH 9.5, and 5 nM and 2.5 mM at pH 7.4.

[3] = system: Arginase-1; design: method as in Stone et al., 2010, Alarcón et al., 2006, Tsui et al., 2009; details: differences in pH and temperature; ref Stone et al., 2010, Alarcón et al., 2006, Tsui et al., 2009; cited from earlier work
[4] = molecular target: T1, human Arginase-1; assay: Thermal shift assay; format: binding; details: 50 μM inhibitor
Procedure: In a 96-well PCR plate (cat no. 652260; Greiner), 10 μL of the enzyme solution was mixed with 5 μL of 200 μM compound dissolved in MQ. […] The plate was sealed with Microseal B Adhesive Sealer (cat. no. MSB1001; Bio-Rad, Hercules, CA) and placed in a CFX96 Real-Time Detection System (Bio-Rad). The temperature was increased from 20 to 95 °C in increments of 0.5 °C during which the SYPRO Orange fluorescence was measured. The resulting datasets were first truncated to contain only the data points that lie between the minimal and maximal fluorescence signals. The remaining data were then fitted to the sigmoidal five-parameter equation (Eq. (2)) ([Schulz et al., 2013]), in which Fmin and Fmax are respectively the minimum and maximum fluorescent signals of the melting transition, T is the temperature, a is the hill slope and c is the asymmetric factor. The melting temperature was then determined as the point of inflection of the melting curve (Eq. […] The reported values were measured in quadruplicate in four independent experiments.(2) […]

[5] = molecular target: T1, human Arginase-1; assay: Arginase-1 colorimetric urea assay (inhibition); format: biochemical; details: for IC50: read-out: IC50 (nM) (95% CI); for Ki: Cheng-Prusoff equation, read-out: Ki (nM) (95% CI)
Procedure: Arginase-1 activity was monitored by measurement of the rate of urea formation in a classic colorimetric assay ([Jung et al., 1975], [Zawada et al., 2009]). […] Compounds were either dissolved and diluted in DMSO, followed by further dilution in reaction buffer, or dissolved in MilliQ water (MQ) and diluted in reaction buffer to the desired concentrations. […] The enzymatic reaction was stopped by addition of 30 μL of the reagent A + B mixture. […] The reported values were measured in quadruplicate in four independent experiments. Dose-response curves were fitted with a four-parameter logistic regression using XLFit (IDBS, Guildford, UK) to determine IC50 values. Graphs for the manuscript were prepared using Prism (GraphPad Software, San Diego, CA).

[6] = molecular target: T1, human Arginase-1; assay: Surface plasmon resonance binding kinetics; details: for τ (target residence time): τ = 1/kd
Procedure: Binding kinetics of the inhibitors were determined by SPR using a Biacore T200 (GE Healthcare). […] The inhibitors were diluted in running buffer from a stock solution in MQ and were injected in an increasing concentration range of 0.1, 0.316, 1, 3.16 and 10 µM. […] The compound response was subtracted with both the reference channel response and the blank injection.

[7] = molecular target: T1, human Arginase-1; details: Enzyme assay at pH 7.4; racemic ABH assumed; ref Golebiowski et al., 2013, Van Zandt et al., 2013, Golebiowski et al., 2013, Van Zandt et al., 2019; cited from earlier work
[8] = Enzyme assay at pH 7.5, ref Colleluori and Ash, 2001

SMILES: C[C@H](N)C(=O)N1C[C@H](CCCB(O)O)[C@](N)(C(=O)O)C1 [CB-1158, (3R,4S)-3-amino-1-[(2S)-2-aminopropanoyl]-4-(3-boronopropyl)pyrrolidine-3-carboxylic acid]
- IC50 ([1]; ref Oberlies et al., 2009): 296 nM

SMILES: N=C(N)NCCC[C@H](N)C(=O)O [L-arginine]
- catalytic rate constant (kcat) ([2]; pH 7.4): 57 s⁻¹
- Km ([2]; pH 7.4): 2300 µM
- catalytic rate constant (kcat) ([2]; pH 9.5): 460 s⁻¹
- Km ([2]; pH 9.5): 4900 µM
- Km [3]: 1900 µM and 2300 µM and 1500 µM
- kcat [3]: 300 s⁻¹ and 190 s⁻¹

SMILES: N=C(NO)NCC[C@H](N)C(=O)O [nor-NOHA, N^ω-hydroxy-nor-L-arginine]
- ΔTm at 50 µM ([4]; pH 7.4): 4.8 °C
- ΔTm at 50 µM ([4]; pH 9.5): 4.7 °C
- IC50 ([1]; ref Van Zandt et al., 2019): 1260 nM
- Ki [1, 8]: 51 nM

SMILES: N[C@@H](CCCCB(O)O)C(=O)O [ABH, (2S)-2-amino-6-boronohexanoic acid]
- IC50 ([5]; pH 7.4, 5 nM Arginase-1, 2.5 mM L-arginine): 184 nM
- Ki ([5]; pH 7.4): 88 nM
- decrease in the Ki on increase of the pH from 7.4 to 9.5 ([5]; pH 7.4 versus pH 9.5): 8 fold
- IC50 ([5]; pH 9.5, 1 nM Arginase-1, 5 mM L-arginine): 22 nM
- Ki ([5]; pH 9.5): 11 nM
- Tm ([4]; pH 7.4): 77.4 °C
- ΔTm at 50 µM ([4]; pH 7.4): 4.5 °C
- Tm ([4]; pH 9.5): 80.9 °C
- ΔTm at 50 µM ([4]; pH 9.5): 3.5 °C
- Kd ([6]; pH 7.4): 797 nM
- ka ([6]; pH 7.4): 12000 M⁻¹ s⁻¹
- kd ([6]; pH 7.4): 0.0099 s⁻¹
- log(ka) ([6]; pH 7.4): 4.09
- log(kd) ([6]; pH 7.4): −2.00
- τ (target residence time) ([6]; pH 7.4): 100 s
- Kd ([6]; pH 9.5): 27 nM
- ka ([6]; pH 9.5): 5100 M⁻¹ s⁻¹
- kd ([6]; pH 9.5): 0.00014 s⁻¹
- log(ka) ([6]; pH 9.5): 3.71
- log(kd) ([6]; pH 9.5): −3.86
- τ (target residence time) ([6]; pH 9.5): 7200 s
- IC50 [7]: 1450 to 1550 nM
- IC50 ([1]; racemic ABH assumed, ref Golebiowski et al., 2013, Van Zandt et al., 2013, Golebiowski et al., 2013, Van Zandt et al., 2019): 1920 to 2550 nM
- Ki [1, 8]: 250 nM
- Ki ([1]; Enzyme assay at pH 9.5, ref Colleluori and Ash, 2001): 8.5 nM
- potency lower at pH 7.5 compared to pH 9.5 ([1]; pH 7.5 versus pH 9.5, ref Colleluori and Ash, 2001): ~30 times
